Experimental data from PMC3285450 (Journal of Medicinal Chemistry, 2010).

Columns and labels:
[1] = pharmacokinetic screening by oral cassette dosing in mice; details: blood pharmacokinetic profile, Figure S3
in vivo = details: male, CFW, mouse, po, 5 mg/kg
Human sEH = target: T1, Human sEH (Homo sapiens, UniProt P34913); details: for improved potency over compound 40: versus compound 40, reached the LOQ of the in vitro assay
T1 sequence (P34913 1-555): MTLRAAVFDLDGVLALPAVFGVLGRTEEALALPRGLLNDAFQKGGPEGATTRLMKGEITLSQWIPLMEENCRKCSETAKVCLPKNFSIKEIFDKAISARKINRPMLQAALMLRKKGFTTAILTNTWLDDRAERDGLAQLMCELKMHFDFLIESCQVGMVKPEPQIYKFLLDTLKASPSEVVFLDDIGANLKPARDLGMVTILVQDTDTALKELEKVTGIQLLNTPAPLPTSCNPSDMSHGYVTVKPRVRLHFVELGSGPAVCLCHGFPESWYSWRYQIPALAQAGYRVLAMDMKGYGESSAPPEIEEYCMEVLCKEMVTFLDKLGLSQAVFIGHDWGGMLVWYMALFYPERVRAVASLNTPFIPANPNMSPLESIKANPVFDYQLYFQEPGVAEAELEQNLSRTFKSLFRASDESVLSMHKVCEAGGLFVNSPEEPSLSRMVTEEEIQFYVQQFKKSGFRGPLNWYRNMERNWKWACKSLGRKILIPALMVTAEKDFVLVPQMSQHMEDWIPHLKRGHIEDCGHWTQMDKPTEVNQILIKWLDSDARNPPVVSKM

murine sEH = target: T2, murine sEH (Mus musculus, UniProt P34914); assay: fluorescent
T2 sequence (P34914 1-554): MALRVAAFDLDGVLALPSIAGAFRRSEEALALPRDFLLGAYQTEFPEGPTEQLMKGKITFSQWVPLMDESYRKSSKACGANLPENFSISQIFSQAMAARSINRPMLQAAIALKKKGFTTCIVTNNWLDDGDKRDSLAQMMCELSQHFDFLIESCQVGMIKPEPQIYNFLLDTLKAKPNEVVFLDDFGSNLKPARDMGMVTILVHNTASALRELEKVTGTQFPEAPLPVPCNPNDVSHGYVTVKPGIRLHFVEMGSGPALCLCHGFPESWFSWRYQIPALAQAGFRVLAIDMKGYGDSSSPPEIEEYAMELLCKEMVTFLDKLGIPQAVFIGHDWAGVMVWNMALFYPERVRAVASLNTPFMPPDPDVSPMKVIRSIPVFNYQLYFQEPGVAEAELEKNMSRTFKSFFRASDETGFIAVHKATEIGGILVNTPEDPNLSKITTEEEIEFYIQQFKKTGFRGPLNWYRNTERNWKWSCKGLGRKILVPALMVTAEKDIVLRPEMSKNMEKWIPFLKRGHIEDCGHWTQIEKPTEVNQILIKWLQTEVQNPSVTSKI

[2] = test system: carrageenan induced inflammatory pain; assay type: in vivo, Male Sprague-Dawley rats; details: for reversal of carrageenan induced pain (mechanical withdrawal threshold): rats, intraplantar, 3 hr after carrageenan, sEHi 10 ng/paw, morphine 10,000 ng/paw, n=6
hydrolytic stability = assay type: physicochemical

CC(=O)N1CCC(NC(=O)NC23CC4CC(CC(C4)C2)C3)CC1 [APAU]
AUC [1]: small
halflife [1]: very short

O=C(O)CCCCCCCCCCCNC(=O)NC12CC3CC(CC(C3)C1)C2 [AUDA, 12-(3-adamantane-1-yl-ureido)dodecanoic acid, reference compound]
AUC(0-t) (in vivo): 0.05 µM·h

CCC(=O)N1CCC(NC(=O)Nc2ccccc2)CC1 [Compound 7]
drop in potency against the human enzyme versus cyclohexyl compound 4 (Human sEH; versus compound 4): 11 fold

CCC(=O)N1CCC(NC(=O)Nc2cccc(F)c2)CC1 [Compound 28]
lower IC50 than para-fluorophenyl 24, human enzyme (Human sEH; versus compound 24): 2 fold
lower IC50 than para-fluorophenyl 24, murine enzyme (murine sEH; versus compound 24): 5 fold

O=C(Nc1ccc(OC(F)(F)F)cc1)NC1CCN(C(=O)C2CC2)CC1 [Compound 52, 1-(1-(cyclopropanecarbonyl)piperidin-4-yl)-3-(4-(trifluoromethoxy)phenyl)urea]
increase in potency compared to morphine, reducing hyperalgesia ([2]; mechanical withdrawal threshold, carrageenan model): 1000 fold
reversal of carrageenan induced pain (mechanical withdrawal threshold) [2]: significantly reversed carrageenan induced pain
increase in potency over adamantane analogue 2 (Human sEH; versus compound 2): 7 fold
improved potency over compound 40 (Human sEH): approximately 9 fold
AUC(0-t) (in vivo): 164 µM·h
Cmax (in vivo): 8.9 µM
Tmax (in vivo): 3.17 h
half-life (in vivo): 19.7 h
improvement from AUDA, exposure in murine blood and murine potency data (murine sEH; Figure S5, versus AUDA): 10^5

O=C(Nc1ccc(OC(F)(F)F)cc1)NC1CCN(C(=O)C(F)(F)F)CC1 [Compound 53]
hydrolytic stability (hydrolytic stability): hydrolytic instability
improved potency over compound 40 (Human sEH): approximately 9 fold

CN1CC[C@]23c4c5ccc(O)c4O[C@H]2[C@@H](O)C=C[C@H]3[C@H]1C5 [morphine, reference compound]
reversal of carrageenan induced pain (mechanical withdrawal threshold) [2]: significantly reversed carrageenan induced pain
